Experimental data as given in publication PMC11111408, “Concurrent inhibition of oncogenic and wild-type RAS-GTP for cancer therapy” (Nature, 2024).
Where “and” joins values, the source holds several entries; their conditions need not be identical. Identical values can stand only once.

What was measured:
[1] = system: KRAS^G12C with secondary switch II pocket mutations; assay: Cellular nano-BRET KRAS:CRAF disruption, KRAS^G12C with secondary SWII mutations; assay type: cell-based, human; conditions: KRAS^G12C with secondary mutation, 4 h
[2] = system: Pa16C cells expressing MEK1 mutants; assay: Proliferation (Calcein AM) of Pa16C cells expressing MEK1 mutants; assay type: cell-based, human
[3] = system: KRAS(G12C)-mutated PDX model from a NSCLC patient relapsed on sotorasib; assay: Sotorasib resistance xenograft study (KRAS^G12C NSCLC PDX); assay type: in vivo, mouse; conditions: 10 mg kg^−1 daily oral, day 17 of treatment
[4] = system: KRAS^G12D PDAC cell lines; assay: Western blot time course of RAS signalling in KRAS^G12D PDAC cell lines; assay type: cell-based, human; conditions: KRAS^G12D PDAC cells in culture, 2 h to 48 h
Experimental: Total ERK and vinculin were used as loading controls. […] Source Data
Cells were lysed with MSD Tris Lysis Buffer (MSD, R60TX-2) or a buffer of 1% Triton X-100, 20 mM Tris-HCl, 150 mM NaCl, and 1 mM EDTA, both supplemented with protease and phosphatase inhibitors. Lysates were cleared by centrifugation and quantified by BCA assay (Pierce, 23225). […] Image Studio Lite (Version 5.2.5) and Image Lab (Version 6.1.0 build 7) software were used for data analysis.

NRAS^Q61L = NRAS^Q61L (Homo sapiens, UniProt P01111+P62937, Q61L); assay: RAS binding affinity of compound-bound CYPA (Kd2), SPR; conditions: steady state SPR, (95% CI)
KRAS–PI3Kα [5] = target: T1, KRAS–PI3Kα (Homo sapiens, UniProt P01116, G12V); assay: Cellular nano-BRET, full length PI3Kα binding to KRAS G12C, G12D, G12V; assay type: cell-based; conditions: KRAS G12V, in the presence of CYPA, single replicates;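 note: U2OS cells expressing KRAS4B mutants carrying N-terminal nanoluciferase or HaloTag fusions, with nano-BRET signal measured after inhibitor exposure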
T1 construct: expressed in transfected cells; host or cells: U2OS

KRAS–PI3Kα [6] = target: T2, KRAS–PI3Kα (Homo sapiens, UniProt P01116, G12D); assay: as above; assay type: cell-based; conditions: KRAS G12D, in the presence of CYPA, single replicates
T2 construct: expressed in transfected cells; host or cells: U2OS

KRAS–PI3Kα [7] = target: T3, KRAS–PI3Kα (Homo sapiens, UniProt P01116, G12C); assay: as above; assay type: cell-based; conditions: KRAS G12C, in the presence of CYPA, single replicates
T3 construct: expressed in transfected cells; host or cells: U2OS

KRAS^G13D = KRAS^G13D (Homo sapiens, UniProt P01116+P62937, G13D); assay: Cellular RAS–CYPA binding (tri-complex formation), nano-BRET in U2OS cells; assay type: cell-based; conditions: (95% CI)
Text: (§1) KRAS4B, or other small GTPases, containing the indicated mutations were cloned in pNLF-N or pHTN plasmids for expression with an N-terminal nanoluciferase or HaloTag fusion, respectively. […] The following day, the cells were collected by Trypsin and reseeded in a white tissue culture-treated 96-well plate in OptiMem phenol red-free medium (Gibco) containing 4% FBS and a 1:1,000 dilution of NanoBRET 618 HaloTag ligand (Promega). For endpoint concentration response curves, vivazine nanoluciferase substrate was added to 1× concentration in OptiMem phenol red-free medium with 4% FBS. Varying concentrations of inhibitor were added and incubated for 1 or 4 h before the nano-BRET signal was measured on a Perkin Elmer Envision plate reader. For kinetic assays, endurazine nanoluciferase substrate was used in place of vivazine, and the plate was placed in a Cytation5 multi-mode reader pre-equilibrated to 37 °C and 5% CO2.

Capan-1 cells = assay: Cellular ERK phosphorylation (pERK); assay type: cell-based; conditions: Homo sapiens; Capan-1 (KRAS^G12V PDAC); (95% CI)
HRAS WT = HRAS WT (Homo sapiens, UniProt P01112+P62937); assay: Biochemical RAS–RAF (BRAF RBD) disruption, TR-FRET; parameters: His6-TEV (N); made in house; host or cells: E. coli BL21(DE3)
Text: (§2) Time-resolved fluorescence resonance energy transfer (TR-FRET) was used as previously described to assess disruption of the interactions between wild-type RAS or the mutant oncogenic RAS proteins and the RAS-binding domain of BRAF, and to assess the induction of interactions between the RAS proteins and CYPA[12].

KRAS^G12S [8] = target: T4, KRAS^G12S (Homo sapiens, UniProt P01116+P62937, G12S); assay: Biochemical RAS–RAF (BRAF RBD) disruption, TR-FRET; parameters: His6-TEV (N); made in house; host or cells: E. coli BL21(DE3)
Text: as §2

KRAS^G12S [9] = target: T4, KRAS^G12S; assay: Cellular RAS–RAF (CRAF RBD) disruption, nano-BRET in U2OS cells; assay type: cell-based; parameters: expressed in transfected cells; host or cells: U2OS PPIA-KO; conditions: (95% CI)
Text: as §1

NRAS^Q61K = NRAS^Q61K (Homo sapiens, UniProt P01111+P62937, Q61K); assay: RAS binding affinity of compound-bound CYPA (Kd2), SPR; conditions: steady state SPR, (95% CI)

CCn1c(-c2cc(N3CCN(C4CC4)CC3)cnc2[C@H](C)OC)c2c3cc(ccc31)-c1csc(n1)C[C@H](NC(=O)[C@H]1[C@@H]3COC[C@@H]31)C(=O)N1CCC[C@H](N1)C(=O)OCC(C)(C)C2 [RMC-7977]
effect of switch II pocket binding mutations (R68, Y96, H95) on potency [1]: little or no effect
Proliferation of Pa16C cells expressing MEK1 mutant constructs ([2]; MEK1E102-I103del, inhibitor 0.010 nM): 100
Proliferation of Pa16C cells expressing MEK1 mutant constructs ([2]; MEK1E102-I103del, inhibitor 0.046 nM): 104.2 and 107.7 and 121 and 88.4
Proliferation of Pa16C cells expressing MEK1 mutant constructs ([2]; MEK1E102-I103del, inhibitor 11.111 nM): 80.9 and 75.7 and 68.8 and 87.1
Proliferation of Pa16C cells expressing MEK1 mutant constructs ([2]; MEK1E102-I103del, inhibitor 33.333 nM): 72.5 and 68.1 and 61 and 93
Proliferation of Pa16C cells expressing MEK1 mutant constructs ([2]; MEK1E102-I103del, inhibitor 100.000 nM): 65.9 and 65.1 and 49.1 and 77.1
Proliferation of Pa16C cells expressing MEK1 mutant constructs ([2]; MEK1E102-I103del, inhibitor 300.000 nM): 58.5 and 56.3 and 42.3 and 60.5
Proliferation of Pa16C cells expressing MEK1 mutant constructs ([2]; MEK1K57N, inhibitor 0.010 nM): 100
Proliferation of Pa16C cells expressing MEK1 mutant constructs ([2]; MEK1K57N, inhibitor 0.046 nM): 132.7 and 110.5 and 108.3
Proliferation of Pa16C cells expressing MEK1 mutant constructs ([2]; MEK1K57N, inhibitor 11.111 nM): 106.5 and 108.3 and 128.9
Proliferation of Pa16C cells expressing MEK1 mutant constructs ([2]; MEK1K57N, inhibitor 33.333 nM): 101 and 88.9 and 126.9
Proliferation of Pa16C cells expressing MEK1 mutant constructs ([2]; MEK1K57N, inhibitor 100.000 nM): 86.3 and 76.5 and 119.3
Proliferation of Pa16C cells expressing MEK1 mutant constructs ([2]; MEK1K57N, inhibitor 300.000 nM): 68.3 and 60.7 and 90.3
Proliferation of Pa16C cells expressing MEK1 mutant constructs ([2]; MEK1Q56P, inhibitor 0.010 nM): 100
Proliferation of Pa16C cells expressing MEK1 mutant constructs ([2]; MEK1Q56P, inhibitor 0.046 nM): 111.1 and 128.1 and 116.5
Proliferation of Pa16C cells expressing MEK1 mutant constructs ([2]; MEK1Q56P, inhibitor 11.111 nM): 109 and 97.6 and 77.9
Proliferation of Pa16C cells expressing MEK1 mutant constructs ([2]; MEK1Q56P, inhibitor 33.333 nM): 99.6 and 83.8 and 68
Proliferation of Pa16C cells expressing MEK1 mutant constructs ([2]; MEK1Q56P, inhibitor 100.000 nM): 81.8 and 65.9 and 54.2
Proliferation of Pa16C cells expressing MEK1 mutant constructs ([2]; MEK1Q56P, inhibitor 300.000 nM): 72.6 and 57.1 and 47.4
Proliferation of Pa16C cells expressing MEK1 mutant constructs ([2]; MEK1S218D/S222D, inhibitor 0.010 nM): 100
Proliferation of Pa16C cells expressing MEK1 mutant constructs ([2]; MEK1S218D/S222D, inhibitor 0.046 nM): 98 and 111.5 and 106.4 and 100.9
Proliferation of Pa16C cells expressing MEK1 mutant constructs ([2]; MEK1S218D/S222D, inhibitor 11.111 nM): 89.6 and 94.3 and 98.3 and 90.9
Proliferation of Pa16C cells expressing MEK1 mutant constructs ([2]; MEK1S218D/S222D, inhibitor 33.333 nM): 86.8 and 90.6 and 104.9 and 86
Proliferation of Pa16C cells expressing MEK1 mutant constructs ([2]; MEK1S218D/S222D, inhibitor 100.000 nM): 81.6 and 87.3 and 91 and 73.6
Proliferation of Pa16C cells expressing MEK1 mutant constructs ([2]; MEK1S218D/S222D, inhibitor 300.000 nM): 72.8 and 76 and 71.6 and 55.5
Proliferation of Pa16C cells expressing MEK1 mutant constructs ([2]; MEK1WT, inhibitor 0.010 nM): 100
Proliferation of Pa16C cells expressing MEK1 mutant constructs ([2]; MEK1WT, inhibitor 0.046 nM): 97.2 and 123.9 and 122.4 and 107.7
Proliferation of Pa16C cells expressing MEK1 mutant constructs ([2]; MEK1WT, inhibitor 11.111 nM): 34.9 and 22.9 and 31.4 and 22.8
Proliferation of Pa16C cells expressing MEK1 mutant constructs ([2]; MEK1WT, inhibitor 33.333 nM): 19.9 and 13.1 and 14.8 and 12.8
Proliferation of Pa16C cells expressing MEK1 mutant constructs ([2]; MEK1WT, inhibitor 100.000 nM): 14.4 and 9 and 9.5 and 10.2
Proliferation of Pa16C cells expressing MEK1 mutant constructs ([2]; MEK1WT, inhibitor 300.000 nM): 9.7 and 8 and 8.2 and 8.6
inhibition of tumour growth [3]: 90%
pERK suppression over time [4]: sustained pERK suppression
Kd (NRAS^Q61L): 240 nM
Cellular nano-BRET of PI3K⍺ (full-length) binding to KRAS (KRAS–PI3Kα [5]; RMC-7977 4.115 nM): 19.5671 and 18.6162 and 18.8909 and 19.2958
Cellular nano-BRET of PI3K⍺ (full-length) binding to KRAS (KRAS–PI3Kα [5]; RMC-7977 12.346 nM): 17.0686 and 16.4926 and 17.3848 and 16.3061 and 17.5986 and 16.6607
Cellular nano-BRET of PI3K⍺ (full-length) binding to KRAS (KRAS–PI3Kα [5]; RMC-7977 37.037 nM): 14.0491 and 14.079 and 13.7071 and 13.4685 and 14.6716 and 13.9571
Cellular nano-BRET of PI3K⍺ (full-length) binding to KRAS (KRAS–PI3Kα [5]; RMC-7977 111.111 nM): 13.3096 and 12.8133 and 13.2135 and 13.4943 and 13.3044 and 13.1946
Cellular nano-BRET of PI3K⍺ (full-length) binding to KRAS (KRAS–PI3Kα [5]; RMC-7977 333.333 nM): 13.0302 and 13.2252 and 12.7334 and 12.2876 and 12.5409 and 12.8603
Cellular nano-BRET of PI3K⍺ (full-length) binding to KRAS (KRAS–PI3Kα [5]; RMC-7977 1000.000 nM): 12.5669 and 12.7724 and 12.7825 and 12.8803 and 12.1527 and 13.0533
Cellular nano-BRET of PI3K⍺ (full-length) binding to KRAS (KRAS–PI3Kα [6]; RMC-7977 12.346 nM): 15.8391 and 14.8964 and 15.0849 and 14.7399 and 14.2306 and 14.9536
Cellular nano-BRET of PI3K⍺ (full-length) binding to KRAS (KRAS–PI3Kα [6]; RMC-7977 37.037 nM): 13.3166 and 13.8897 and 13.2531 and 13.6566 and 13.0465 and 13.0111
Cellular nano-BRET of PI3K⍺ (full-length) binding to KRAS (KRAS–PI3Kα [6]; RMC-7977 111.111 nM): 12.9631 and 12.8542 (2×) and 12.751 and 12.7145 and 12.5362
Cellular nano-BRET of PI3K⍺ (full-length) binding to KRAS (KRAS–PI3Kα [6]; RMC-7977 333.333 nM): 12.4418 and 12.5115 and 12.0796 and 12.2384 and 12.3217 and 12.5478
Cellular nano-BRET of PI3K⍺ (full-length) binding to KRAS (KRAS–PI3Kα [6]; RMC-7977 1000.000 nM): 12.9103 and 12.8341 and 12.4299 and 12.848 and 12.6569 and 12.4165
Cellular nano-BRET of PI3K⍺ (full-length) binding to KRAS (KRAS–PI3Kα [7]; RMC-7977 4.115 nM): 18.9 and 18.4569 and 18.8341 and 18.1839 and 17.8374 and 17.916
Cellular nano-BRET of PI3K⍺ (full-length) binding to KRAS (KRAS–PI3Kα [7]; RMC-7977 12.346 nM): 15.8416 and 16.2344 and 15.8041 and 16.4517 and 15.615 and 15.4215
Cellular nano-BRET of PI3K⍺ (full-length) binding to KRAS (KRAS–PI3Kα [7]; RMC-7977 37.037 nM): 13.5244 and 14.2699 and 13.7436 and 13.7375 and 14.0918 and 13.7581
Cellular nano-BRET of PI3K⍺ (full-length) binding to KRAS (KRAS–PI3Kα [7]; RMC-7977 111.111 nM): 13.3801 and 13.6296 and 13.7851 and 13.3968 and 13.4702 and 13.5585
Cellular nano-BRET of PI3K⍺ (full-length) binding to KRAS (KRAS–PI3Kα [7]; RMC-7977 333.333 nM): 13.479 and 13.457 and 13.6054 and 13.4472 and 13.3596 and 13.441
Cellular nano-BRET of PI3K⍺ (full-length) binding to KRAS (KRAS–PI3Kα [7]; RMC-7977 1000.000 nM): 13.0371 and 13.4964 and 13.2247 and 13.6424 and 13.499 and 13.5185
EC50 (KRAS^G13D): 4.99 nM
EC50 (Capan-1 cells): 0.421 nM
EC50 (HRAS WT): 59.9 nM
EC50 (KRAS^G12S [8]): 107 nM
EC50 (KRAS^G12S [9]): 15.1 nM
Kd (NRAS^Q61K): 72.4 nM
